Substitutions are numbered along the chain they refer to.
Columns and labels:
[1] = biological target: T1, D880E-AR (Homo sapiens, UniProt P10275, D880E); format: cell-based; settings: AR mutant D880E; transfected PC3 cells; 0.1 nM R1881; drug 0 to 50 μM
T1 sequence (P10275 1-920 D880E): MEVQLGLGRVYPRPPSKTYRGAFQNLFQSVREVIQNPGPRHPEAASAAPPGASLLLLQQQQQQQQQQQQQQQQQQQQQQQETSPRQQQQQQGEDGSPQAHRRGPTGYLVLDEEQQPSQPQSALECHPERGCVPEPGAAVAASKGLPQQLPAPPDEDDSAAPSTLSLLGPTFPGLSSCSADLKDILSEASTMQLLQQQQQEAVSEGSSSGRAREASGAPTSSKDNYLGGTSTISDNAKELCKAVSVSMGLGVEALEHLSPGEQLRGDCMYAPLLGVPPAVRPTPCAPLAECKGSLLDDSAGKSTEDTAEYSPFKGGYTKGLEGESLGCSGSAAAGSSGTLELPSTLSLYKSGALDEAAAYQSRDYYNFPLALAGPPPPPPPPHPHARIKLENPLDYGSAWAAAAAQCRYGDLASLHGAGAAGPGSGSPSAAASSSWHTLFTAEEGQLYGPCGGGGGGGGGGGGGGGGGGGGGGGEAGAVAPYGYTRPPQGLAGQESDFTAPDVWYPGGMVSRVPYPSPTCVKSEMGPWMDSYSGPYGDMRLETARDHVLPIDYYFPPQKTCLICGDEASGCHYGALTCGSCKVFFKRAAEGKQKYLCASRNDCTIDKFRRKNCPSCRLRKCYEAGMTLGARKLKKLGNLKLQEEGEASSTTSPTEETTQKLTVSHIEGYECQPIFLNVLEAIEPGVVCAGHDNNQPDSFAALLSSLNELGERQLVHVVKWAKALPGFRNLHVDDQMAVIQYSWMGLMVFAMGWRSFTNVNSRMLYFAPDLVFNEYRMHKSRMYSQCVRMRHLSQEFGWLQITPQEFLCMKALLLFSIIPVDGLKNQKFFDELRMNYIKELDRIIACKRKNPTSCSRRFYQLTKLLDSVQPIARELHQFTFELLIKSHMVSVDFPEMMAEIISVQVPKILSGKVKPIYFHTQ
Description: (§1) Full-length human AR (WT-AR) was encoded on a pcDNA3.1 expression plasmid (Life technologies). The LBD point mutations (single and multiple) were generated using the QuikChange II Site-Directed Mutagenesis Kit (Agilent Technologies) as per manufacturer’s instructions using WT-AR as the template. The mutagenic oligonucleotide primers were designed individually with the desired mutation in the middle of the primer with approximately 10 to 15 bases of correct sequence on both sides.
(§2) PC3 cells were seeded and transfected as described above. […] A non-stimulated/no R1881 control was used. After 24 h, cells were lysed and AR-dependent luciferase activity was quantified. Each concentration was assayed in quadruplicate n = 4, with a biological replicate of n = 3. Results were averaged and normalized by expressing them as a percentage of WT AR activity.

[2] = biological target: T2, L882I-AR (Homo sapiens, UniProt P10275, L882I); format: cell-based; settings: AR mutant L882I; transfected PC3 cells; 0.1 nM R1881; drug 0 to 50 μM
T2 sequence (P10275 1-920 L882I): T1 sequence (P10275 1-920 D880E) with E880D, L882I
Description: as §1, §2

CC(C)(O)C(=O)Nc1ccc([N+](=O)[O-])c(C(F)(F)F)c1 [Hydroxyflutamide, hydroxyflutamide]
Agonist response to treatment [1]: Partial | Agonist response to treatment [2]: Partial

Reference: PMC4729137, “Functional analysis of androgen receptor mutations that confer anti-androgen resistance identified in circulating cell-free DNA from prostate cancer patients” (Genome Biology, 2016)
